In publication PMC12703749, “H2O2–Responsive Anticancer Prodrug: Synthesis, Precision Deuteration in Search of In Vivo Metabolites, and Activation Pathway” (Journal of Medicinal Chemistry, 2025):

Assay: In vivo determination of metabolites in urine and feces (HRMS)
Set-up: species or system athymic nude mice
Method: To elucidate the in vivo activation mechanism of the H2O2-responsive prodrugs 10a and 10b, we investigated their metabolic fate in a xenograft mouse model. MDA-MB-468 tumor-bearing athymic nude mice received an intraperitoneal injection of a 1:1 mixture of 10a (nondeuterated, d 0) and 10b (deuterated, d 5) at equimolar doses (15 mg/kg each; total dose: 30 mg/kg). […] These end-products are consistent with a pathway initiated by H2O2-triggered oxidative deboronation of the boronic acid moiety in 10a/10b to yield phenol intermediates 11a/11b, which can undergo either hydrolysis to alcohols 12a/12b followed by N-demethylation, or direct N-demethylation to 13a/13b (Scheme ). The resulting 13a/13b serve as substrates for UDP-glucuronosyltransferase (UGT)-catalyzed conjugation with uridine diphosphate glucuronic acid, ultimately forming glucuronide conjugates 14a and 14b (Figure and Scheme ). Although intermediates 11a,b-13a,b were not detected in vivo, likely due to their rapid turnover and concentrations below the sensitivity of our LC–MS method, the proposed sequence is strongly supported by complementary cell-culture metabolism studies in which two key intermediates (11a,b and 12a,b) were observed (Figures S8 and S9). Detection of both isotopically labeled and unlabeled metabolites therefore provides robust evidence for H2O2-mediated oxidative deboronation in vivo, with the in vitro findings offering additional mechanistic confirmation.
Eight-week-old female athymic nude mice (immunodeficient) were anesthetized with isoflurane and subcutaneously inoculated in the flank with 7.5 × 10^6 MDA-MB-468 cells in 100 μL of a 1:1 mixture of Matrigel and Dulbecco’s Modified Eagle Medium (DMEM). Cells were sourced from the American Type Culture Collection (ATCC) and certified free of bloodborne pathogens. Mice were monitored daily for tumor development and weighed weekly. Upon establishment of palpable xenografts (typically one-week postinoculation), animals were randomized into treatment (n = 3) and control (n = 3) groups. For metabolite profiling, mice were individually housed in Labsand-lined cages (Labsand purchased from BrainTree Scientific, inc.). The treatment group received an IP injection of a 1:1 mixture of compounds 10a (d 0) and 10b (d 5) (100 μL) at a combined dose of […], formulated in DMSO/PBS (1×):PEG400 at a ratio of 2:19:19. The control group received the corresponding vehicle (PBS/PEG400/DMSO, 19:19:2). Food and water were provided ad libitum. Urine and Feces were collected separately at two intervals: 0–24 h and 24–48 h. All collected samples were subsequently stored in −80 °C.
Fecal samples (0.4 g) were thawed on ice from −80 °C. The feces were mixed and homogenized with a pestle in 10 mL centrifuge tube with LCMS grade MeOH (2 mL), then centrifuged for 5 min at 10,000g. The supernatant was transferred to a separate 2 mL centrifuge tube and dried. The resulting feces were subjected to SPE C-18 (Supelco Discovery DSC-18Lt SPE Tube) by initially using 5 mL 18 LCMS grade water and subsequently eluted with LCMS grade MeOH. The organic eluant was collected and dried. The resulting feces mixture was filtered by size exclusion (Amicon Ultra Centrifugal Filter, 3 kDa MWCO). Then the solution was transferred to a sample vial with 300 μL insert and analyzed by Shimadzu HRMS 9030 Q-TOF. Urine samples were thawed on ice from −80 °C, vortexed for 5 s and blended in aliquots of 20 μL MeCN. The samples were vortexed for 15 s and centrifuged for 10 min at 10,000g. The supernatant was transferred to a clean microcentrifuge tube and diluted 10× with 80:20 H2O/MeCN. The resulting solution was filtered by size exclusion (Amicon Ultra Centrifugal Filter, 3 kDa MWCO) at 11k × g.
3. In vivo determination of metabolites from Xenograft models
Table S1. In vivo metabolites of 10a and 10b and HPLC retention time (Rt).a
0 – 24 h (R t/min) 24 – 48 h (R t/min)
Phase II metabolite urine feces urine feces
glucoside <LOD <LOD <LOD <LOD […]

[1] = urine 0–24 h after IP 1:1 mixture of 10a and 10b, total dose 30 mg/kg, HRMS

In the case of `CCc1cc(N)ccc1OC1OC(C(=O)O)C(O)C(O)C1O` (centres unmarked) [Compound 14a], the “phase II metabolite in feces” value (feces 0–24 h, Table S1) is reported as “< LOD”, the “phase II metabolite in feces” value (feces 24–48 h, Table S1) is reported as “< LOD” and the “phase II metabolite in urine” value [1] is reported as “presence”. The “phase II metabolite in urine” value (urine 24–48 h, Table S1) was “< LOD”.
In the case of `[2H]C([2H])([2H])C([2H])([2H])c1cc(N)ccc1OC1OC(C(=O)O)C(O)C(O)C1O` (centres unmarked) [Compound 14b], the “phase II metabolite in feces” value (feces 0–24 h, Table S1) is reported as “< LOD”, the “phase II metabolite in feces” value (feces 24–48 h, Table S1) is reported as “< LOD” and the “phase II metabolite in urine” value [1] is reported as “presence”. For the same compound, the “phase II metabolite in urine” value (urine 24–48 h, Table S1) was “< LOD”.
